Laboratory results taken from PMC5244392, “Interspecies cathelicidin comparison reveals divergence in antimicrobial activity, TLR modulation, chemokine induction and regulation of phagocytosis” (Scientific Reports, 2017).

What was measured:
Type in all cases: cell-based, murine
[1] = system: LTA-induced TLR-2 activation of RAW264.7 cells; experiment: LTA neutralization: LTA-induced TNFα release; settings: peptide 0.08-20 μM; for Summary class, TLR activation LTA: 1 μg/ml LTA S. aureus, TNFα after 2 h, − = no significant effect, N = 3; for LTA neutralization / inhibition of LTA-induced activation, in words: 1 μg/ml S. aureus LTA, 2 h, TNFα
Excerpt: (§1) TLR ligands: LPS Escherichia coli (E. coli) O111:B4 (TLR-4), LTA S. aureus (TLR-2), and ODN-1826 (TLR-9) were obtained from Invivogen (Toulouse, France). Chicken CATH-2 (chCATH-2) and PMAP-36 were synthesized by Fmoc-chemistry at China Peptides (CPC scientific, Sunnycale, CA) and all other cathelicidins were synthesized by Fmoc-chemistry at the Academic Centre for Dentistry Amsterdam (Amsterdam, The Netherlands) (Table 1). Purity of all peptides was >95% as analyzed by HPLC-MS.
(§2) RAW264.7 cells were stimulated with 100 ng/ml LPS E. coli O111:B4, 1 μg/ml LTA S. aureus or 2.5 nM ODN-1826 in the presence of various concentrations of different cathelicidins. TNFα release was determined after 2 h for LPS and LTA stimulation and 24 h for ODN-1826 stimulation. CXCL10, CCL5 and IL-10 release were all determined after 24 h stimulation. As a control, RAW264.7 cells were stimulated for 2 h with 10^6 CFU/ml live or heat-killed (70 °C, 0.5 h) E. coli O78, followed by a double wash with cell culture medium and subsequent 22 h incubation in cell culture medium supplemented with 250 μg/ml gentamicin.
(§3) ELISA Duoset kits for mouse TNFα, CCL5, CXCL10 and IL-10 were obtained from R&D systems (Minneapolis, MN, USA) and ELISAs were performed according to the manufacturer’s protocol. Samples were stored at −20 °C until analysis and, if needed, diluted in 1% BSA in PBS, pH 7.4. Absorbance at 450 nm was determined in a FLUOstar Omega microplate reader (BMG Labtech GmbH) and corrected for absorbance at 570 nm. Results were analyzed with MARS data analysis software (BMG Labtech GmbH).
RAW264.7 cells were stimulated for 2 h with 100 ng/ml LPS from E. coli O111:B4 in the presence of different cathelicidins at various concentrations to study the capability of LPS neutralization (Fig. 3A). […] Next, RAW264.7 cells were stimulated with 1 μg/ml S. aureus LTA for 2 h in the presence of various cathelicidin concentrations, to test LTA neutralization (Fig. 3B).
(§4) Figure 3 Effects of cathelicidins on TLR-2, -4, and -9 activation. LPS (100 ng/ml) (A), LTA (1 μg/ml) (B) or ODN-1826 (2.5 nM) (C) was mixed with different cathelicidins (0.08 μM, 0.31 μM, 1.25 μM, 5 μM, and 20 μM) before addition to the RAW264.7 cells. Supernatants were collected after 2 hours (A,B) or 24 hours (C) incubation and TNFα expression was measured. The dotted line represents the average cytokine release of control samples. Results are presented as average +/− SEM (N = 3). Statistical differences were determined by Two-way ANOVA with Bonferroni post-hoc test.

[2] = system: DNA-induced TLR-9 activation of RAW264.7 cells; experiment: Enhancement of DNA (ODN-1826)-induced TNFα release; settings: 2.5 nM ODN-1826, TNFα after 24 h; for Enhancement of DNA-induced TLR-9 activation, in words: 20 μM for the named peptides; for Summary class, TLR activation DNA: peptide 0.08-20 μM, − = no significant effect, N = 3
Excerpt: as §1, §2, §3, §4
All other peptides had no effect on the DNA-induced TLR-9 activation. To ensure that the increase of TNFα secretion was indeed enhancement of DNA-induced activation and not a result of direct induction by cathelicidins, TNFα release was determined after 24 h cathelicidin stimulation (see Supplementary Fig. S2D). None of the cathelicidins induced TNFα release after 24 h, (if anything, most cathelicidins caused a small reduction of TNFα secretion) indicating the increased activation is indeed enhancement of DNA-induced activation.

[3] = system: CCL2 (MCP-1) release by RAW264.7 cells; experiment: Cathelicidin induced CCL2 release; settings: for Summary class, chemokines CCL2 (2 h): 2 h stimulation, − = no significant effect, N = 3
Protocol: (§5) E. coli O78 (Zoetis Animal Health, Kalamazoo, MI, USA), E. coli ATCC 25922, Staphylococcus aureus ATCC 29213, and methicillin resistant Staphylococcus aureus (MRSA) (WKZ-2, human clinical isolate) were grown overnight from a glycerol stock in Mueller Hinton Broth (MHB) (Becton Dickinson, USA). Before use, bacteria were grown to mid-log phase in MHB for 2 hours at 37 °C, 200 RPM. Murine RAW264.7 macrophages (ATCC-TIB-71) were obtained from the American Type Culture Collection (ATCC, Manassas, VA, USA) and cultured in DMEM (41966-029; Thermo Fisher Scientific, Waltham, MA, USA) supplemented with 10% FCS (Bodinco B.V., Alkmaar, the Netherlands) (DMEM + FCS) at 37 °C, 5.0% CO2. Cells were seeded in 96-wells plates at 5 × 10^5 cells/ml or 12-wells plates at 2 × 10^5/ml for adherence overnight prior to stimulation.
as §3
(§6) Since cathelicidins have membrane-perturbing properties which might affect the host’s cell membrane, first the possible cytotoxicity of the cathelicidins to RAW264.7 cells was assessed. […] Next, RAW264.7 cells were stimulated with the cathelicidins at various concentrations for 2 h and 24 h, after which release of CCL2 (MCP-1), CCL5 (RANTES), CXCL10 (IP-10), TNFα and IL-10 was determined.
(§7) Figure 2 Cathelicidin induced chemokine and cytokine release by RAW264.7 cells. RAW264.7 cells were incubated for 2 h and 24 h with cathelicidins (0.08 μM, 0.31 μM, 1.25 μM, 5 μM, and 20 μM), after which the supernatants were harvested and tested for release of CCL2 at 2 h (A) and 24 h (B), CCL5 at 24 h (C) and CXCL10 at 24 h (D). Dotted line represents average cytokine release of control samples. Results are presented as average +/− SEM (N = 3). Statistical differences were determined by Two-way ANOVA with Bonferroni post-hoc test.

[4] = system: CCL5 (RANTES) release by RAW264.7 cells; experiment: Cathelicidin induced CCL5 release; settings: for Induction of CCL5 secretion after 24 h stimulation: 20 μM peptide; for Summary class, chemokines CCL5 (24 h): 24 h stimulation, peptide 0.08-20 μM, − = no significant effect, N = 3
Protocol: as §5, §2, §3, §6
as §7, with “Results are presented as average +/− SEM (N = 3).” left out

[5] = system: CXCL10 (IP-10) release by RAW264.7 cells; experiment: Cathelicidin induced CXCL10 release; settings: for Increase of CXCL10 secretion after 24 h stimulation: 20 μM peptide; for Summary class, chemokines CXCL10 (24 h): 24 h stimulation, peptide 0.08-20 μM, − = no significant effect, N = 3
Protocol: as §5, §2, §3, §6, §7

Row | Substance | Summary class, TLR activation LTA [1] | Enhancement of DNA-induced TLR-9 activation, in words [2] | Summary class, TLR activation DNA [2] | Increase of CXCL10 secretion after 24 h stimulation [5] | Summary class, chemokines CXCL10 (24 h) [5] | other results
1 | RIIDLLWRVRRPQKPKFVTVWVR [PMAP-23, porcine α-helical cathelicidin, 23 residues, charge +6] | ↓ (↓ = significant decrease at 20 μM) | able to enhance DNA-induced TLR-9 activation | ↑ (↑ = significant increase at 20 μM) | – | – | –
2 | Ac-GRFRRLRKKTRKRLKKIGKVLKWIPPIVGSIPLGCG [PMAP-36, porcine α-helical cathelicidin, N-acetylated, 36 residues, charge +13] | – | – | – | – | – | Enhancement of CCL2 secretion after 2 h stimulation ([3]; 5 μM peptide): 3–4 fold
3 | RFGRFLRKIRRFRPKVTITIQGSARF-NH2 [chCATH-2, chicken CATH-2, C-terminal amide, 26 residues, charge +9] | ↓↓ (↓↓ = significant decrease ≤5 μM) | – | ↑↑ (↑↑ = significant increase ≤5 μM) | – | – | Enhancement of CCL2 secretion after 2 h stimulation ([3]; 20 μM peptide): 3–4 fold; Summary class, chemokines CCL2 (2 h) ([3]; peptide 0.08-20 μM): ↑ (↑ = significant increase at 20 μM); LTA neutralization / inhibition of LTA-induced activation, in words [1]: potently inhibited; Induction of CCL5 secretion after 24 h stimulation [4]: 2–3 fold; Summary class, chemokines CCL5 (24 h) [4]: ↑ (↑ = significant increase at 20 μM); Optimal concentration to induce DNA activation [2]: 1.25 µM
4 | KRRHWFPLSFQEFLEQLRRFRDQLPFP [eCATH-2, equine CATH-2, 27 residues, charge +4] | ↓↓ (↓↓ = significant decrease ≤5 μM) | able to enhance DNA-induced TLR-9 activation | ↑ (↑ = significant increase at 20 μM) | 2–3 fold | ↑ (↑ = significant increase at 20 μM) | LTA neutralization / inhibition of LTA-induced activation, in words [1]: significantly inhibited
5 | RLKELITTGGQKIGEKIRRIGQRIKDFFKNLQPREEKS [Peptide K9CATH, dog cathelicidin, 38 residues, charge +6] | – | – | – | 2–3 fold | ↑ (↑ = significant increase at 20 μM) | Induction of CCL5 secretion after 24 h stimulation [4]: 2–3 fold; Summary class, chemokines CCL5 (24 h) [4]: ↑ (↑ = significant increase at 20 μM)
6 | RRRPRPPYLPRPRPPPFFPPRLPPRIPPGFPPRFPPRFP [PR-39, porcine proline-rich cathelicidin forming a polyproline helix, 39 residues, charge +10] | – | able to enhance DNA-induced TLR-9 activation | ↑ (↑ = significant increase at 20 μM) | – | – | Effect on CCL2 secretion after 24 h stimulation, in words ([3]; 24 h, peptide 0.08-20 μM): non-significant
7 | RVKRFWPLVPVAINTVAAGINLYKAIRRK [chCATH-3, chicken CATH-3, 29 residues, charge +7] | – | – | – | – | – | Enhancement of CCL2 secretion after 2 h stimulation ([3]; 5 μM peptide): 3–4 fold; Enhancement of CCL2 secretion after 2 h stimulation ([3]; 20 μM peptide): 3–4 fold; Summary class, chemokines CCL2 (2 h) ([3]; peptide 0.08-20 μM): ↑↑ (↑↑ = significant increase ≤5 μM)
8 | GLLRKGGEKIGEKLKKIGQKIKNFFQKLVPQPEQ [CRAMP, murine cathelicidin, 34 residues, charge +6] | ↓ (↓ = significant decrease at 20 μM) | – | – | 2–3 fold | ↑ (↑ = significant increase at 20 μM) | –
